Experimental data: patent publication US5081131A, “Omega-((hetero)alkyl)benz(cd)-indol-2-amines” (American Cyanamid Company, priority 1988, dated 1992)

System: spontaneously hypertensive rats
Assay: Hypotensive activity in spontaneously hypertensive rats (MABP)
Assay type: in vivo, rat (Okamoto strain)
Settings: SHR, gavage, two doses of 10 mg/kg or less 24 h apart, MABP at 28 h; average baseline 160±1.5 mm Hg
Protocol: The novel compounds of the present invention are active hypotensive agents and were tested for hypotensive activity by the method of P. S. Chan and D. Poorvin, Clinical and Experimental Hypertension, 1 (6), 817-830 (1979). Male, 16 week old, spontaneously hypertensive rats of the Okamoto strain, from Taconic Farms, Germantown, N.Y., having an average mean arterial blood pressure of 160±1.5 mm of mercury, were used in the test. One to 4 rats were used per test compound. A rat was dosed by gavage with a test compound, suspended in 2% pre-boiled starch at a concentration of 50 mg/ml, at a doses of 10 mg/kg of body weight or less, with 0.9% sodium chloride loading at a dose of 25 ml/kg of body weight. A second identical dose of the test compound, without sodium chloride loading was given 24 hours later. At 28 hours after initial dose the mean arterial blood pressure (MABP) was measured. The procedure was repeated in a second and third rat when necessary.

Structure (SMILES)	Avg. MABP in mm Hg (No. of Rats)
CC(CNC1=Nc2c(Cl)cc(Cl)c3cccc1c23)Cn1ccnc1 (centres unmarked) [6,8-Dichloro-N-(3-(1H-imidazol-1-yl)-2-methylpropyl)benz(cd)indol-2-amine sesqui-furamate]	116 mm Hg
CC(CCNC1=Nc2c(Cl)cc(Cl)c3cccc1c23)n1ccnc1.Cl.Cl (centres unmarked) [6,8-Dichloro-N-(3-(1H-imidazol-1-yl)butyl)benz(cd)indol-2-amine dihydrochloride]	134 mm Hg
Cl.Cl.Clc1cc(Cl)c2cccc3c2c1N=C3NCCCCCCCn1ccnc1 [6,8-Dichloro-N-(7-(1H-imidazol-1-yl)heptyl)benz(cd)indol-2-amine dihydrochloride]	130 mm Hg
CC(CNC1=Nc2ccc(Br)c3cccc1c23)Cn1ccnc1.Cl.Cl (centres unmarked) [6-Bromo-N-(3-(1H-imidazol-1-yl)-2-methylpropyl)benz(cd)indol-2-amine, dihydrochloride]	107 mm Hg
Clc1ccc2c3c(cccc13)C(NCCCn1ccnc1)=N2 [6-Chloro-N-(3-(1H-imidazol-l-yl)propyl)benz(cd)indol-2-amine]	124 mm Hg
Fc1ccc2c3c(cccc13)C(NCCCn1ccnc1)=N2 [6-Fluoro-N-(3-(1H-imidazol-1-yl)propyl)benz(cd)indol-2-amine]	94 mm Hg
C(=C/Cn1ccnc1)/CNC1=Nc2cccc3cccc1c23.O=C(O)/C=C/C(=O)O [(Z)-N-(4-(1H-imidazol-1-yl)-2-butenyl)benz(cd)indol-2-amine, fumarate]	102 mm Hg
Clc1ccc(C(Cn2cncn2)NC2=Nc3cccc4cccc2c34)cc1.O=C(O)/C=C/C(=O)O (centres unmarked) [N-(1-(4-Chlorophenyl)-2-(1H-1,2,4-triazol-1-yl)ethyl)benz(cd)indol-2-amine fumarate]	142 mm Hg
O=C(O)/C=C/C(=O)O.c1cc2c3c(cccc3c1)C(NCCn1ccnc1)=N2 [N-(2-(1H-imidazol-1-yl)ethyl)benz(cd)indol-2-amine, fumarate]	97 mm Hg
O=C(O)/C=C/C(=O)O.c1cc2c3c(cccc3c1)C(NCCOCCn1ccnc1)=N2 [N-(2-(2-(1H-imidazol-1-yl)ethoxy)ethyl)benz(cd)indol-2-amine, fumarate]	108 mm Hg
O=C(O)/C=C/C(=O)O.c1ccc(CSCCNC2=Nc3cccc4cccc2c34)nc1 [N-(2-((2-pyridinylmethyl)thio)ethyl)benz(cd)indol-2-amine fumarate]	143 mm Hg
CCC(CC)(CNC1=Nc2cccc3cccc1c23)Cn1ccnc1 [N-(2-Ethyl-2-(1H-imidazol-1-yl)methyl)butylbenz(cd)indol-2-amine sesqui-fumarate]	112 mm Hg
CN(CCCn1ccnc1)C1=Nc2cccc3cccc1c23 [N-(3-1H-imidazol-1-yl)propyl)-N-methylbenz(cd)indol-2-amine]	95 mm Hg
O=C(O)/C=C/C(=O)O.c1cc2c3c(cccc3c1)C(NCCCn1cccn1)=N2 [N-(3-(1H-Pyrazol-1-yl)propyl)benz(cd)indol-2-amine fumarate]	141 mm Hg
O=C(O)/C=C/C(=O)O.O=C(O)/C=C/C(=O)O.OC(CNC1=Nc2cccc3cccc1c23)Cn1ccnc1 (centres unmarked) [N-(3-(1H-imidazol-1-yl)-2-hydroxypropyl)benz(cd)indol-2-amine bis-fumarate]	132 mm Hg
O=C(O)/C=C/C(=O)O.O=C(O)/C=C/C(=O)O.c1cc2c3c(cccc3c1)C(NCCCn1ccnc1)=N2 [N-(3-(1H-imidazol-1-yl)propyl)benz(cd)indol-2-amine, bis-fumarate]	81 mm Hg
Cc1csc(CCCNC2=Nc3cccc4cccc2c34)n1.O=C(O)/C=C/C(=O)O [N-(3-(4-Methyl-2-thiazolyl)propyl)benz(cd)indol-2-amine fumarate]	122 mm Hg
Cc1cn(CCCNC2=Nc3cccc4cccc2c34)cn1.Cl.Cl [N-(3-(4-methyl-1H-imidazol-1-yl)propyl)benz(cd)indol-2-amine, dihydrochloride]	106 mm Hg
c1cc2c3c(cccc3c1)C(NOCCCCn1ccnc1)=N2 [N-(4-(1H-imidazol-1-yl)butoxy)benz(cd)indol-2-amine]	111 mm Hg
C[N+]1=C(NCCCCn2cc[n+](C)c2)c2cccc3cccc1c23.[I-].[I-] [N-(4-(1H-imidazol-1-yl)butyl)benz(cd)indol-2-amine dimethiodide]	110 mm Hg
c1cc2c3c(cccc3c1)C(NCCCCn1ccnc1)=N2 [N-(4-(1H-imidazol-1-yl)butyl)benz(cd)indol-2-amine, hydriodide]	74 mm Hg

Structure (SMILES)	Avg. MABP in mm Hg (No. of Rats)
c1cncc(CCCCNC2=Nc3cccc4cccc2c34)c1 [N-(4-(3-Pyridinyl)butyl)benz(cd)indol-2-amine sesqui-fumarate]	95 mm Hg
C(=Cc1cccnc1)CCCNC1=Nc2cccc3cccc1c23 [N-(5-(3-Pyridinyl)-4-pentenyl)benz(cd)indol-2-amine sesqui-fumarate]	140 mm Hg
c1cc2c3c(cccc3c1)C(NCCCCCCCn1ccnc1)=N2 [N-(7-(1H-imidazol-1-yl)heptyl)benz(cd)indol-2-amine]	127 mm Hg
Cl.Cl.c1cc2c3c(cccc3c1)C(NCCCCCCCCCCn1ccnc1)=N2 [N-(10-(1H-imidazol-1-yl)decyl)benz(cd)indol-2-amine, dihydrochloride]	124 mm Hg
O=C(c1ccco1)N(CCCCn1ccnc1)C1=Nc2cccc3cccc1c23 [N-(Benz(cd)indol-2-yl)-N-(4-(1H-imidazol-1-yl)butyl)-2-furancarboxamide]	96 mm Hg
Cc1ccc(C(=O)N(CCCCn2ccnc2)C2=Nc3cccc4cccc2c34)cc1 [N-(Benz(cd)indol-2-yl)-N-(4-(1H-imidazol-1-yl)butyl)-4-methylbenzamide]	82 mm Hg
O=C(c1ccccc1Cl)N(CCCCn1ccnc1)C1=Nc2cccc3cccc1c23 [N-Benz(cd)indol-2-yl-2-chloro-N-(4-(1-imidazol-1-yl)butyl)benzamide]	80 mm Hg
O=C(c1ccc(Cl)c(Cl)c1)N(CCCCn1ccnc1)C1=Nc2cccc3cccc1c23 [N-Benz(cd)indol-2-yl-3,4-dichloro-N-(4-(1H-imidazol-1-yl)butyl)benzamide]	96 mm Hg
CC(=O)N(CCCn1cncn1)C1=Nc2cccc3cccc1c23 [N-Benz(cd)indol-2-yl-N-(3-(1H-1,2,4-triazol-1-yl)propyl)acetamide]	118 mm Hg
O=C(Nc1ccccc1)N(CCCn1ccnc1)C1=Nc2cccc3cccc1c23 [N-Benz(cd)indol-2-yl-N-(3-(1H-imidazol-1-yl)propyl)-N'-phenylurea]	145 mm Hg
CC(=O)N(CCCn1ccnc1)C1=Nc2cccc3cccc1c23 [N-Benz(cd)indol-2-yl-N-(3-(1H-imidazol-1-yl)propyl)acetamide]	102 mm Hg
O=C(c1cccc(C(F)(F)F)c1)N(CCCCn1ccnc1)C1=Nc2cccc3cccc1c23 [N-Benz(cd)indol-2-yl-N-(4-(1H-imidazol 1-yl)butyl)-3-trifluoromethylbenzamide]	77 mm Hg
O=C(c1cccs1)N(CCCCn1ccnc1)C1=Nc2cccc3cccc1c23 [N-Benz(cd)indol-2-yl-N-(4-(1H-imidazol-1-yl)butyl)-2-thiophenecarboxamide]	86 mm Hg
O=C(c1ccc(F)cc1)N(CCCCn1ccnc1)C1=Nc2cccc3cccc1c23 [N-Benz(cd)indol-2-yl-N-(4-(1H-imidazol-1-yl)butyl)-4-fluorobenzamide]	85 mm Hg
O=C(c1ccccc1)N(CCCCn1ccnc1)C1=Nc2cccc3cccc1c23 [N-Benz(cd)indol-2-yl-N-(4-(1H-imidazol-1-yl)butyl)benzamide]	80 mm Hg
CCCCCCC(=O)N(CCCCn1ccnc1)C1=Nc2cccc3cccc1c23 [N-Benz(cd)indol-2-yl-N-(4-(1H-imidazol-1-yl)butyl)heptanamide]	76 mm Hg
CCCCCC(=O)N(CCCCn1ccnc1)C1=Nc2cccc3cccc1c23 [N-Benz(cd)indol-2-yl-N-(4-(1H-imidazol-1-yl)butyl)hexanamide]	102 mm Hg
CCCCC(=O)N(CCCCn1ccnc1)C1=Nc2cccc3cccc1c23 [N-Benz(cd)indol-2-yl-N-(4-(1H-imidazol-1-yl)butyl)pentanamide]	84 mm Hg
CCC(=O)N(CCCCn1ccnc1)C1=Nc2cccc3cccc1c23 [N-Benz(cd)indol-2-yl-N-(4-(1H-imidazol-1-yl)butyl)propanamide]	83 mm Hg
O=C(c1cccc(C(F)(F)F)c1)N(CCCCc1cccnc1)C1=Nc2cccc3cccc1c23 [N-Benz(cd)indol-2-yl-N-(4-(3-pyridinyl)butyl)-3-trifluoromethylbenzamide]	115 mm Hg
